From patent publication US20260116868A1 (Arcus Biosciences, Inc., priority 2023, published 2026)

Assays:
Cbl-b = target: T1, Cbl-b (Homo sapiens, UniProt Q13191); test: Cbl-b probe displacement HTRF binding assay; settings: 0.4 nM Cbl-b, 150 nM BODIPY probe
T1 construct: biotin (biotinylated protein)
Outline: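 Compound competes with BODIPY probe (150 nM) for biotinylated Cbl-b (0.4 nM) in HEPES/NaCl/Triton/TCEP/BSA buffer; 60 min preincubation, 15 min with probe, room temperature. Tb-streptavidin HTRF read; % displacement vs DMSO and no-protein controls, IC50 from four-parameter fit.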

Jurkat cells = test: IL-2 secretion assay in Jurkat cells activated with CD3/CD28 T Cell Activator; format: cell-based; settings: Homo sapiens; Jurkat cells, CD3/CD28 T Cell Activator, 24 h, IL-2 AlphaLISA; read-out: IL-2 Secretion (EC50)
Outline: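 Jurkat cells in Opti-MEM were preincubated 1 h at 37° C with compound (final 10 μM to 300 pM, 16-point 1:2 dilution), then activated with human CD3/CD28 T Cell Activator for 24 h at 37° C. Supernatant IL-2 measured by AlphaLISA; EC50 from 4-parameter logistic fit.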

T1 sequence (Q13191 whole entry, species assumed): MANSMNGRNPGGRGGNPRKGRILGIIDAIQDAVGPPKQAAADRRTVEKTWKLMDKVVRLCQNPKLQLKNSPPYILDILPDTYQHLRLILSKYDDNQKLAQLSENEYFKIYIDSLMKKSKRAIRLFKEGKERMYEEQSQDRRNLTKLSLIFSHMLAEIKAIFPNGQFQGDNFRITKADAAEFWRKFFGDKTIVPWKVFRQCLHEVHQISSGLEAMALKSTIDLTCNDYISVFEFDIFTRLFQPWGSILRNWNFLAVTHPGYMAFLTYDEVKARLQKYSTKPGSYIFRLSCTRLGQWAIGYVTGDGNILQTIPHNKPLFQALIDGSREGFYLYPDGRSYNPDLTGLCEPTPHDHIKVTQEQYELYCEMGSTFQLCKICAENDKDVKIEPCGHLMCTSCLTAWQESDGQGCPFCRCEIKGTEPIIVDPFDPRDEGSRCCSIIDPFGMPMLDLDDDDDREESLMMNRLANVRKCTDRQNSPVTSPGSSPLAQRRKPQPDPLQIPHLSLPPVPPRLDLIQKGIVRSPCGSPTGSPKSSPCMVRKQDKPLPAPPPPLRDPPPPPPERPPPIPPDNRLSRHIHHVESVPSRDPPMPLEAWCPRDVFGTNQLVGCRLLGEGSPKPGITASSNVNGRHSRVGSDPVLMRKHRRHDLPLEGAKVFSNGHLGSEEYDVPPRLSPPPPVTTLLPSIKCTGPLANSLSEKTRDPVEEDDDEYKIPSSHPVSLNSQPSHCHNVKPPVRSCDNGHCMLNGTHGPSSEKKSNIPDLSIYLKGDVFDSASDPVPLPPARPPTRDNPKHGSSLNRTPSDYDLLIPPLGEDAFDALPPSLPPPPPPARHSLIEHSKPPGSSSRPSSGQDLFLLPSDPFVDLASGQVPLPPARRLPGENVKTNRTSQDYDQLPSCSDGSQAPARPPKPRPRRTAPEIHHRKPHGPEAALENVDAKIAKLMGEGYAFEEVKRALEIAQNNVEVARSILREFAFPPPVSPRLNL

Row | SMILES | IC50 (Cbl-b) [nM] | EC50 (Jurkat cells) [nM]
1 | COCCNCc1cc(C(=O)Nc2cc(-c3ccc(C#N)cc3-c3nc(C#N)cn3C)cc(C3CC3)n2)c(=O)n(C2CC2)c1 [Example 48, N-{4-[4-cyano-2-(4-cyano-1-methyl-2-imidazolyl)phenyl]-6-cyclopropyl-2-pyridyl}-1-cyclopropyl-5-[(2-methoxyethylamino)methyl]-2-oxo-1,2-dihydronicotinamide] | < 100 | < 100
2 | Cc1ocnc1-c1cc(C#N)ccc1-c1cc(NC(=O)c2cc(CNC3(C)CCC3)cn(C3CC3)c2=O)nc(C2CC2)c1 [Example 53, N-{4-[4-cyano-2-(5-methyl-1,3-oxazol-4-yl)phenyl]-6-cyclopropyl-2-pyridyl}-1-cyclopropyl-5-[(1-methylcyclobutylamino)methyl]-2-oxo-1,2-dihydronicotinamide] | < 100 | 100 to 1000
3 | COCCNCc1cc(C(=O)Nc2cc(-c3ccc(F)cc3C(=O)N3CC(F)(F)C3)cc(C3CC3)c2)c(=O)n(C2CC2)c1 [Example 69, N-{5-cyclopropyl-2′-[(3,3-difluoro-1-azetidinyl)carbonyl]-4′-fluoro-3-biphenylyl}-1-cyclopropyl-5-[(2-methoxyethylamino)methyl]-2-oxo-1,2-dihydronicotinamide] | < 100 | 100 to 1000
4 | C[C@H]1CCCN(Cc2cc(C(=O)Nc3cc(-c4ccc(F)cc4-c4nncn4C)cc(C4CC4)n3)c(=O)n(CC(F)(F)F)c2)C1 [Example 58, N-[6-cyclopropyl-4-[4-fluoro-2-(4-methyl-1,2,4-triazol-3-yl)phenyl]pyridin-2-yl]-5-[[(3S)-3-methylpiperidin-1-yl]methyl]-2-oxo-1-(2,2,2-trifluoroethyl)pyridine-3-carboxamide] | < 100 | < 100
5 | C[C@H]1CCCN(Cc2cc(C(=O)Nc3cc(-c4ccc(C#N)cc4-c4nncn4C(F)F)cc(C4CC4)n3)c(=O)n(C3CC3)c2)C1 [Example 7, N-(4-{4-cyano-2-[4-(difluoromethyl)-4H-1,2,4-triazol-3-yl]phenyl}-6-cyclopropyl-2-pyridyl)-5-{[(S)-3-methyl-1-piperidyl]methyl}-1-cyclopropyl-2-oxo-1,2-dihydronicotinamide] | < 100 | < 100
6 | Cn1cnnc1-c1cc(F)ccc1-c1cc(NC(=O)c2cc(C3CC3)cn(C3CC3)c2=O)nc(C2CC2)c1 [Example 29, N-{6-Cyclopropyl-4-[4-fluoro-2-(4-methyl-4H-1,2,4-triazol-3-yl)phenyl]-2-pyridyl}-1-cyclopropyl-5-cyclopropyl-2-oxo-1,2-dihydronicotinamide] | 100 to 1000 | 1000 to 5000
7 | C[C@H]1CCCN(Cc2cc(C(=O)Nc3cc(-c4ccc(F)cc4C(=O)N4CC(F)C4)cc(C4CC4)n3)c(=O)n(C3CC3)c2)C1 [Example 65, N-(6-cyclopropyl-4-{4-fluoro-2-[(3-fluoro-1-azetidinyl)carbonyl]phenyl}-2-pyridyl)-5-{[(S)-3-methyl-1-piperidyl]methyl}-1-cyclopropyl-2-oxo-1,2-dihydronicotinamide] | < 100 | 100 to 1000
8 | CO[C@H](C)CNCc1cc(C(=O)Nc2cc(-c3ccc(F)cc3-c3nncn3C)cc(C3CC3)n2)c(=O)n(C2CC2)c1 [Example 20, N-{6-cyclopropyl-4-[4-fluoro-2-(4-methyl-4H-1,2,4-triazol-3-yl)phenyl]-2-pyridyl}-5-{[(R)-2-methoxypropylamino]methyl}-1-cyclopropyl-2-oxo-1,2-dihydronicotinamide] | < 100 | < 100
9 | O=C(Nc1cc(-c2ccc(OC(F)F)cc2C(=O)N2CC(F)(F)C2)cc(C2CC2)n1)c1cc(CNCC2CCCO2)cn(C2CC2)c1=O (stereo in doubt) [Example 84, N-(6-cyclopropyl-4-{2-[(3,3-difluoro-1-azetidinyl)carbonyl]-4-difluoromethoxyphenyl}-2-pyridyl)-5-[({[(R)-tetrahydro-2-furyl]methyl}amino)methyl]-1-cyclopropyl-2-oxo-1,2-dihydronicotinamide] | < 100 | < 100
10 | CC1CC(c2cccc(NC(=O)c3cc(CN4CCC[C@H](C)C4)cn(CC4CC4)c3=O)c2)(c2nncn2C)C1 (mixture of isomers) [Example 78, 1-(cyclopropylmethyl)-N-[3-[3-methyl-1-(4-methyl-1,2,4-triazol-3-yl)cyclobutyl]phenyl]-5-[[(3S)-3-methylpiperidin-1-yl]methyl]-2-oxopyridine-3-carboxamide] | < 100 | 100 to 1000
11 | Cn1cc(C#N)nc1-c1cc(C#N)ccc1-c1cc(NC(=O)c2cc(CNC3(C)CCC3)cn(C3CC3)c2=O)nc(C2CC2)c1 [Example 49, N-{4-[4-cyano-2-(4-cyano-1-methyl-2-imidazolyl)phenyl]-6-cyclopropyl-2-pyridyl}-1-cyclopropyl-5-[(1-methylcyclobutylamino)methyl]-2-oxo-1,2-dihydronicotinamide] | < 100 | < 100
12 | COC[C@H](C)NCc1cc(C(=O)Nc2cc(-c3ccc(F)cc3-c3nncn3C)cc(C3CC3)n2)c(=O)n(C2CC2)c1 [Example 18, N-{6-cyclopropyl-4-[4-fluoro-2-(4-methyl-4H-1,2,4-triazol-3-yl)phenyl]-2-pyridyl}-5-{[(S)-2-methoxy-1-methylethylamino]methyl}-1-cyclopropyl-2-oxo-1,2-dihydronicotinamide] | < 100 | < 100
13 | Cn1cnnc1-c1cc(F)ccc1-c1cc(NC(=O)c2cc(C3CCNC3)cn(CC3CC3)c2=O)nc(C2CC2)c1 (centres unmarked) [Example 31, N-[6-cyclopropyl-4-[4-fluoro-2-(4-methyl-1,2,4-triazol-3-yl)phenyl]pyridin-2-yl]-1-(cyclopropylmethyl)-2-oxo-5-pyrrolidin-3-ylpyridine-3-carboxamide] | 100 to 1000 | > 5000
14 | C[C@H]1CCCN(Cc2cc(C(=O)Nc3cc(-c4ccc(F)cc4-c4nncn4C)cc(C4CC4)n3)c(=O)n(CC3CCC3)c2)C1 [Example 62, 1-(cyclobutylmethyl)-N-[6-cyclopropyl-4-[4-fluoro-2-(4-methyl-1,2,4-triazol-3-yl)phenyl]pyridin-2-yl]-5-[[(3S)-3-methylpiperidin-1-yl]methyl]-2-oxopyridine-3-carboxamide] | < 100 | < 100
15 | CO[C@@H](C)CNCc1cc(C(=O)Nc2cc(-c3c(F)cc(Cl)cc3C(=O)N3CC(F)(F)C3)cc(C3CC3)n2)c(=O)n(C2CC2)c1 [Example 102, N-[4-[4-chloro-2-(3,3-difluoroazetidine-1-carbonyl)-6-fluorophenyl]-6-cyclopropylpyridin-2-yl]-1-cyclopropyl-5-[[[(2S)-2-methoxypropyl]amino]methyl]-2-oxopyridine-3-carboxamide] | < 100 | < 100
16 | C[C@H]1CCCN(Cc2cc(C(=O)Nc3cc(-c4ccc(C#N)cc4-c4nncn4C(F)F)cc(N)n3)c(=O)n(C3CC3)c2)C1 [Example 8, N-(6-amino-4-{4-cyano-2-[4-(difluoromethyl)-4H-1,2,4-triazol-3-yl]phenyl}-2-pyridyl)-5-{[(S)-3-methyl-1-piperidyl]methyl}-1-cyclopropyl-2-oxo-1,2-dihydronicotinamide] | < 100 | 100 to 1000
17 | CCOc1cc(-c2ccc(F)cc2-c2nncn2C)cc(NC(=O)c2cc(CNCCOC)cn(C3CC3)c2=O)n1 [Example 5, 1-cyclopropyl-N-[6-ethoxy-4-[4-fluoro-2-(4-methyl-1,2,4-triazol-3-yl)phenyl]pyridin-2-yl]-5-[(2-methoxyethylamino)methyl]-2-oxopyridine-3-carboxamide] | < 100 | < 100
18 | COCCNCc1cc(C(=O)Nc2cc(-c3ccc(C(=O)OC)cc3-c3ncoc3C)cc(C3CC3)n2)c(=O)n(C2CC2)c1 (single isomer, unassigned) [Example 51, methyl 4-(6-cyclopropyl-2-{1-cyclopropyl-5-[(2-methoxyethylamino)methyl]-2-oxo-1,2-dihydronicotinoylamino}-4-pyridyl)-3-(5-methyl-1,3-oxazol-4-yl)benzoate] | 100 to 1000 | 1000 to 5000
19 | C[C@H]1CCCN(Cc2cc(C(=O)Nc3cc(-c4ccc(F)cc4-c4nncn4C)cc(C4CC4)n3)c(=O)n(CC3CCOCC3)c2)C1 [Example 60, N-[6-cyclopropyl-4-[4-fluoro-2-(4-methyl-1,2,4-triazol-3-yl)phenyl]pyridin-2-yl]-5-[[(3S)-3-methylpiperidin-1-yl]methyl]-1-(oxan-4-ylmethyl)-2-oxopyridine-3-carboxamide] | < 100 | 100 to 1000
20 | CO[C@H]1C[C@@](c2cccc(NC(=O)c3cc(CN4CCC[C@H](C)C4)cn(C4CC4)c3=O)c2)(c2nncn2C)C1 [Example 80, 1-cyclopropyl-N-[3-[3-methoxy-1-(4-methyl-1,2,4-triazol-3-yl)cyclobutyl]phenyl]-5-[[(3S)-3-methylpiperidin-1-yl]methyl]-2-oxopyridine-3-carboxamide] | 100 to 1000 | 100 to 1000
21 | C[C@H]1CCCN(Cc2cc(C(=O)Nc3cc(-c4ccc(C#N)cc4-c4nccn4C)cc(Cl)n3)c(=O)n(C3CC3)c2)C1 [Example 35, N-{6-chloro-4-[4-cyano-2-(1-methyl-2-imidazolyl)phenyl]-2-pyridyl}-5-{[(S)-3-methyl-1-piperidyl]methyl}-1-cyclopropyl-2-oxo-1,2-dihydronicotinamide] | < 100 | 100 to 1000
22 | COCCNCc1cc(C(=O)Nc2cc(-c3ccc(F)cc3-c3nncn3C)cc(C3CC3)n2)c(=O)n(C2CC2)c1 [Example 4, 1-cyclopropyl-N-[6-cyclopropyl-4-[4-fluoro-2-(4-methyl-1,2,4-triazol-3-yl)phenyl]pyridin-2-yl]-5-[(2-methoxyethylamino)methyl]-2-oxopyridine-3-carboxamide] | < 100 | < 100
